Series [1] has as its target JNK1 (Homo sapiens, UniProt P45983). Nature of the series: JNK1 homogeneous time-resolved fluorescence enzyme inhibition assay. It is filed as biochemical. As to conditions: for R: ratio of IC50 values of JNK1 over JNK3: isoform selectivity against JNK1. As for the experimental part:
(§1) A 10-point titration of all compounds was carried out in 3-fold dilutions from 10 μM to 0.5 nM.

The target of series [2] is JNK3α1 (Homo sapiens, UniProt P53779). The series is classed as biochemical. As for the experimental part: as §1
Sequence of JNK3α1 (P53779 1-422 isoform P53779-2): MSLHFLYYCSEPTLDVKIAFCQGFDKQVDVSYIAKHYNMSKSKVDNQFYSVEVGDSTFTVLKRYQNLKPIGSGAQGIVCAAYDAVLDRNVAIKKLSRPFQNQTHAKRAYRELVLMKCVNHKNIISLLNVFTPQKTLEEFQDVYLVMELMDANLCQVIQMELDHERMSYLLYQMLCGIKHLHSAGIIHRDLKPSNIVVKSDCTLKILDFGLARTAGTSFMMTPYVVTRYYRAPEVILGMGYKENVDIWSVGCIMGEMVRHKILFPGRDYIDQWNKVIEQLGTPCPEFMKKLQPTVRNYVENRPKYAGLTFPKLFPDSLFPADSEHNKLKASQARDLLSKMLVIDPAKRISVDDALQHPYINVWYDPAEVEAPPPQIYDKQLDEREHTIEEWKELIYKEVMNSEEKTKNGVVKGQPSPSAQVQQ
The target of series [3] is p38α (Homo sapiens, UniProt Q16539). The series can be described thus: p38 enzyme inhibition assay. To be noted: mean of ≥2 experiments; read-out: Biochemical inhibition IC50 p38α.
Sequence of p38α (Q16539 whole entry): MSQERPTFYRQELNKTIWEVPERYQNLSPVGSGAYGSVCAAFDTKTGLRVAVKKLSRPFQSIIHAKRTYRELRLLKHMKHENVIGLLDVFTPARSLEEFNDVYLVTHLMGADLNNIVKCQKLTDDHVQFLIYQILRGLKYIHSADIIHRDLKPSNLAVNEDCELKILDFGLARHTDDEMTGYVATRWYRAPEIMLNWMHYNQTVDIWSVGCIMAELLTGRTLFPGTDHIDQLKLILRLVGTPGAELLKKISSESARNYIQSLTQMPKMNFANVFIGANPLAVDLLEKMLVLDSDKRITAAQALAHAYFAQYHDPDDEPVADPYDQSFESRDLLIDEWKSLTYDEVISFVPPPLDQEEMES
Series [4] addresses CYP3A4 (Homo sapiens, UniProt P08684). The series can be described thus: P450 cocktail inhibition assay, CYP3A4. It is filed as in vitro ADME. To be noted: at 10 μM. As for the experimental part:
(§2) P450s inhibition for four major isoforms are evaluated using a cocktail inhibition assay where the metabolism of specific marker substrate (CYP1A2 phenaceten […] to acetaminophen); CYP2C9, tolbutamide hydroxylation to hydrocytolbutamide; CYP2D6, bufuralol hydroxylation to […]; and CYP3A4, midazolam hydroxylation to 1′-Hydroxymidazolam) in the presence or absence of 10 TM probe compound is evaluated. The concentration of each marker substrate is approximately its Km. […] Specific inhibitors for each isoform are included in each run to validate the system.

For series [5], the system named is SHSY5Y cells. Nature of the series: MTT cytotoxicity assay.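 Also: compounds tested at 10 µM final concentration.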 As to conditions: 48 hrs, average of ≥2 experiments. The series is classed as cell-based. Set-up: dose or concentration left out as unconfirmed. As for the experimental part: A day before the assay, cells were plated at 50,000/well in 96 well plates in the culture medium. […] After the incubation, cells were subjected to MTT assay using Vybrant MTT Cell Proliferation kit as directed by the vendor (Life Technologies).
(Tetrazolium dyes change colour on reduction, which living cells bring about.)

A short description of series [6]: Microsomal stability, human. It is filed as in vitro ADME. As to conditions: human microsomes.
Series [7] in a line: Microsomal stability, mouse. To be noted: mouse microsomes. The series is classed as in vitro ADME.
Series [8] concerns the target T1, CYP1A2 (Homo sapiens, UniProt P05177).
T1 sequence (P05177 1-516): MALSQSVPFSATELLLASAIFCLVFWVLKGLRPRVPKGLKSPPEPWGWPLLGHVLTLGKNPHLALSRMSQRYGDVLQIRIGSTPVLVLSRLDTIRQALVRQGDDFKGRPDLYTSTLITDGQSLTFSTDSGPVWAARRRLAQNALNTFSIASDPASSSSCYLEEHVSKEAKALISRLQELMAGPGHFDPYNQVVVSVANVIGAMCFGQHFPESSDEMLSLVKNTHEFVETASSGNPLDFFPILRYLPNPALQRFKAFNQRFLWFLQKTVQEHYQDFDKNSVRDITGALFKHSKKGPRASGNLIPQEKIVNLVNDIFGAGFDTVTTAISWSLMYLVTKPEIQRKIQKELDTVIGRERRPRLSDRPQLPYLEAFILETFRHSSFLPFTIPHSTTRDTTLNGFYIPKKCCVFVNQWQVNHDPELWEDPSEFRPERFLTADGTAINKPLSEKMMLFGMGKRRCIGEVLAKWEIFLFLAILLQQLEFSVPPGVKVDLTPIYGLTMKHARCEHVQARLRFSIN
Nature of the series: P450 cocktail inhibition assay, CYP1A2. It is filed as in vitro ADME. As to conditions: at 10 μM. As for the experimental part: as §2

The target of series [9] is JNK2 (Homo sapiens, UniProt P45984). Nature of the series: JNK2 homogeneous time-resolved fluorescence enzyme inhibition assay. The series is classed as biochemical. To be noted: for R: ratio of IC50 values of JNK2 over JNK3: isoform selectivity against JNK2; for IC50: mean of ≥2 experiments, read-out: Biochemical inhibition IC50 JNK2. Here is the method:
as §1

For series [10], the target named is CYP2C9 (Homo sapiens, UniProt P11712). Nature of the series: P450 cocktail inhibition assay, CYP2C9. The series is classed as in vitro ADME. To be noted: at 10 μM. Here is the method: as §2
Sequence of CYP2C9 (P11712 whole entry): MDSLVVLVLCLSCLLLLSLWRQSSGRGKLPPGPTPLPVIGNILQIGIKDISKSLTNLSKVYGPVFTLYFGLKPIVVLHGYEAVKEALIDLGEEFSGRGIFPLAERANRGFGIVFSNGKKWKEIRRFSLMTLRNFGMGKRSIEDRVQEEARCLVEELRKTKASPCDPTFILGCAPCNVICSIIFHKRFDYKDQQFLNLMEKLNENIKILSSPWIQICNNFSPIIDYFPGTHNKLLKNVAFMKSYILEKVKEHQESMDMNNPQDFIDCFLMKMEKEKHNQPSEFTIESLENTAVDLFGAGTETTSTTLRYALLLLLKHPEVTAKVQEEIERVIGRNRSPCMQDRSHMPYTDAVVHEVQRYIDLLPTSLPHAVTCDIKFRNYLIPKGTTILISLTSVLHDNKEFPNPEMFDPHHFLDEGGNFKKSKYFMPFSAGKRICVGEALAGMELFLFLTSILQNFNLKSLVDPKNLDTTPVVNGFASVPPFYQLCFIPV
The target of series [11] is CYP2D6 (Homo sapiens, UniProt P10635). Nature of the series: P450 cocktail inhibition assay, CYP2D6. It is filed as in vitro ADME. To be noted: at 10 μM. As for the experimental part: as §2
Sequence of CYP2D6 (P10635 whole entry): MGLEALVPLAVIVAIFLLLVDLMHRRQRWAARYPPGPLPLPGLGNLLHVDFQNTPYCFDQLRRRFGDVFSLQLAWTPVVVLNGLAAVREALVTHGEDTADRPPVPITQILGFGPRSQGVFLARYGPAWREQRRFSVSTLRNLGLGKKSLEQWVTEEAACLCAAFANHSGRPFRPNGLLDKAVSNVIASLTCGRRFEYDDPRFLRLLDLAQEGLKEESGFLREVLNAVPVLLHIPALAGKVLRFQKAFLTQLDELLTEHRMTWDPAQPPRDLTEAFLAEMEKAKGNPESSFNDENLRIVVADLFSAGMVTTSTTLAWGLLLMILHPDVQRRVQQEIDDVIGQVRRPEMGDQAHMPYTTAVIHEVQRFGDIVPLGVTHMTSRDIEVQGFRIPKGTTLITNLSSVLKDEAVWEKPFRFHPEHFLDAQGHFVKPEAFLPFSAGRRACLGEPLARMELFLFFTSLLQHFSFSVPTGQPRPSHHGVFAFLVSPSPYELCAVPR
The mark [12] stands for this setting: mean of ≥2 experiments, read-out: Biochemical inhibition IC50 JNK3.
Setting [13] is: mean of ≥2 experiments, read-out: Biochemical inhibition IC50 JNK1.

Where two headings read alike, the source gives them in different places.

Sequence of JNK2 (P45984 whole entry, canonical isoform): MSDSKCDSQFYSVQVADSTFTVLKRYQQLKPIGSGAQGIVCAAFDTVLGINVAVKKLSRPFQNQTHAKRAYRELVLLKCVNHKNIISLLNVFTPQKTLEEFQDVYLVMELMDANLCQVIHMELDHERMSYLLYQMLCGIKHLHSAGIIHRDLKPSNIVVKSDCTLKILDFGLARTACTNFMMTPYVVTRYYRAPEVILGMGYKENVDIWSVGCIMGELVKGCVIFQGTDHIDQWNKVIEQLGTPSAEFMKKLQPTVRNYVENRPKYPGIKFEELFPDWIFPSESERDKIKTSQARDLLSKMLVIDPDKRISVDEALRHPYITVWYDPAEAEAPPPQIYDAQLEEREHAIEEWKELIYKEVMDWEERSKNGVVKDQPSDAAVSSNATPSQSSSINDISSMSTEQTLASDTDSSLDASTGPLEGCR
Sequence of JNK1 (P45983 whole entry, canonical isoform): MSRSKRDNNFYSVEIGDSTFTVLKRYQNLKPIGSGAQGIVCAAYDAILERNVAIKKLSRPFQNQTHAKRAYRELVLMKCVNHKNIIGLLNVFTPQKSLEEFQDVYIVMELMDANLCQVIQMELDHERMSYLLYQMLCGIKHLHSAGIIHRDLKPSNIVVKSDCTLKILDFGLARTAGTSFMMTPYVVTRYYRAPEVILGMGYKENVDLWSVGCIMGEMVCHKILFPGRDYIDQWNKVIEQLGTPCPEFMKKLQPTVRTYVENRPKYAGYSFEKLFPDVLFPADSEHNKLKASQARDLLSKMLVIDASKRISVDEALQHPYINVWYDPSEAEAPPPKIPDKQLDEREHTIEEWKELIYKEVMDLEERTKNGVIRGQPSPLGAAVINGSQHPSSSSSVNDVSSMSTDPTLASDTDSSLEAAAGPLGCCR
Sequence of CYP3A4 (P08684 whole entry, canonical isoform): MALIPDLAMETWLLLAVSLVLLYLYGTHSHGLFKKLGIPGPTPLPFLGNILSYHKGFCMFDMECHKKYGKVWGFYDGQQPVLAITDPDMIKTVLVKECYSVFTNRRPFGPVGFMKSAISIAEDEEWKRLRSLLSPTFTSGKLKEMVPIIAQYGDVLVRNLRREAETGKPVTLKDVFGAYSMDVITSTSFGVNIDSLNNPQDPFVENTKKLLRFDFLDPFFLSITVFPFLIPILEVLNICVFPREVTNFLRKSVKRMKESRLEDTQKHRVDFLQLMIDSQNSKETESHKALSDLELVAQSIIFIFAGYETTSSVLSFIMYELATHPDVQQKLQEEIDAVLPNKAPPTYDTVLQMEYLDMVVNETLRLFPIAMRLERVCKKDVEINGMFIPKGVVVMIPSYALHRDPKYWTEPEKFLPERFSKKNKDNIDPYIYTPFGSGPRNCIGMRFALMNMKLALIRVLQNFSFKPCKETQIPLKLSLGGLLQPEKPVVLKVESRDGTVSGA

Take `O=C(Nc1cnn(-c2nc(C(=O)NC3CNC3)cs2)c1)Nc1ccccc1Cl` [Compound 3, N-(azetidin-3-yl)-2-(4-(3-(2-chlorophenyl)ureido)-1H-pyrazol-1-yl)thiazole-4-carboxamide]: the “inhibition of JNK1” value in [1] (in words, FIG. 3) is reported as “no inhibition”. Further, in [2] (in words, FIG. 3), the “inhibition of JNK3” value was “no inhibition”.

As for `O=C(Nc1cnn(-c2ccc(C(=O)NC3CNC3)s2)c1)Nc1ccccc1Cl` [Compound 4, N-(azetidin-3-yl)-5-(4-(3-(2-chlorophenyl)ureido)-1H-pyrazol-1-yl)thiophene-2-carboxamide], the IC50 – broadly, the concentration needed to halve the response being measured – in series [2] (setting [12]) is 800 nM.

`O=C(Nc1cnn(-c2cc(C(=O)NC3CNC3)cs2)c1)Nc1ccccc1Cl` [Compound 5, N-(azetidin-3-yl)-5-(4-(3-(2-chlorophenyl)ureido)-1H-pyrazol-1-yl)thiophene-3-carboxamide]: the IC50 in series [2] (setting [12]) amounted to 200 nM.

As to `O=C(Nc1cnn(-c2csc(C(=O)NC3CNC3)c2)c1)Nc1ccccc1Cl` [Compound 6, N-(azetidin-3-yl)-4-(4-(3-(2-chlorophenyl)ureido)-1H-pyrazol-1-yl)thiophene-2-carboxamide], the figures for the IC50 in [3], in [1] (setting [13]) and in [2] (setting [12]) were more than 20000 nM, 3600 nM and 50 nM, respectively. Besides, in series [1] (JNK3 over JNK1, text), the “isoform selectivity against JNK1” value came out at 72 fold. Also, the “R: ratio of IC50 values of JNK1 over JNK3” value (“R: ratio … of JNK1 over JNK3” for short) in series [1] stood at 72.

Take `CNC(=O)c1cc(-n2cc(NC(=O)Nc3ccccc3Cl)cn2)cs1` [Compound 7, 4-(4-(3-(2-chlorophenyl)ureido)-1H-pyrazol-1-yl)-N-methylthiophene-2-carboxamide]: the half-maximal inhibitory concentration (IC50) in series [3] and in series [1] was more than 20000 nM in each case.

On to `O=C(Nc1cnn(-c2csc(C(=O)N[C@@H]3CCNC3)c2)c1)Nc1ccccc1Cl` [Compound 9, (R)-4-(4-(3-(2-chlorophenyl)ureido)-1H-pyrazol-1-yl)-N-(pyrrolidin-3-yl)thiophene-2-carboxamide], for which the values for the IC50 in [1] (setting [13]) and in [2] (setting [12]) were 5900 nM and 132 nM, respectively.

Turning to `CN1CC[C@@H](NC(=O)c2cc(-n3cc(NC(=O)Nc4ccccc4Cl)cn3)cs2)C1` [Compound 10, (R)-4-(4-(3-(2-chlorophenyl)ureido)-1H-pyrazol-1-yl)-N-(1-methylpyrrolidin-3-yl)thiophene-2-carboxamide], the “R: ratio … of JNK1 over JNK3” value in series [1] is 60. Also, the IC50 in series [1] (setting [13]) worked out at 5100 nM; in series [2] (setting [12]), 85 nM.

Regarding `[2H]C([2H])([2H])N1CC[C@@H](NC(=O)c2cc(-n3cc(NC(=O)Nc4ccccc4Cl)cn3)cs2)C1` [Compound 11, (R)-4-(4-(3-(2-chlorophenyl)ureido)-1H-pyrazol-1-yl)-N-(1-(methyl-d3)pyrrolidin-3-yl)thiophene-2-carboxamide], the “R: ratio … of JNK1 over JNK3” value in series [1] is recorded as 61. The IC50 amounted to 5100 nM in series [1] (setting [13]) and 83 nM in series [2] (setting [12]).

On to `CN1CC[C@H](NC(=O)c2cc(-n3cc(NC(=O)Nc4ccccc4Cl)cn3)cs2)C1` [Compound 12, (S)-4-(4-(3-(2-chlorophenyl)ureido)-1H-pyrazol-1-yl)-N-(1-methylpyrrolidin-3-yl)thiophene-2-carboxamide], for which, in series [4], the “CYP-450 % inh. 3A4” value is listed as −18%. Further, the MTT cell viability in series [5] was determined as 94%. For the same compound, the “Mic. stability t1/2 Human” value in series [6] was 54 min. In addition, in [7], the “Mic. stability t1/2 Mouse” value is listed as 20 min. Further, the “CYP-450 % inh. 1A2” value in series [8] was −1%. In addition, the “isoform selectivity against JNK2 vs JNK3” value in [9] is reported as “around 40 folds”. In addition, the “R: ratio of IC50 values of JNK2 over JNK3” value in [9] is given as 39. Further, the IC50 in [9] is 1510 nM; in series [1] (setting [13]), 2200 nM; in series [2] (setting [12]), 39 nM. Also, the “R: ratio … of JNK1 over JNK3” value in [1] was 56. Further, in series [10], the “CYP-450 % inh. 2C9” value is −9%. Besides, in series [11], the “CYP-450 % inh. 2D6” value worked out at 20%.

Regarding `CC(C)N1CC[C@H](NC(=O)c2cc(-n3cc(NC(=O)Nc4ccccc4Cl)cn3)cs2)C1` [Compound 13, (S)-4-(4-(3-(2-chlorophenyl)ureido)-1H-pyrazol-1-yl)-N-(1-isopropylpyrrolidin-3-yl)thiophene-2-carboxamide], the “R: ratio … of JNK1 over JNK3” value in series [1] was 60. Further, the concentration for half-maximal inhibition (IC50) in [1] (setting [13]) was 720 nM; in series [2] (setting [12]), 12 nM.

In the case of `O=C(Nc1cnn(-c2csc(C(=O)N[C@@H]3CCOC3)c2)c1)Nc1ccccc1Cl` [Compound 16, (R)-4-(4-(3-(2-chlorophenyl)ureido)-1H-pyrazol-1-yl)-N-(tetrahydrofuran-3-yl)thiophene-2-carboxamide], in [4], the “CYP-450 % inh. 3A4” value was −20%. Moreover, in series [5], the MTT cell viability is 112%. Further, in series [6], the “Mic. stability t1/2 Human” value was determined as 33 min. The “Mic. stability t1/2 Mouse” value in series [7] is 13 min. The “CYP-450 % inh. 1A2” value in [8] stood at 17%. In series [9], the “isoform selectivity against JNK2 vs JNK3” value is given as more than 250 folds, the “R: ratio of IC50 values of JNK2 over JNK3” value is 253 and the IC50 was determined as 2020 nM. Moreover, the “R: ratio … of JNK1 over JNK3” value in [1] came to 188. In addition, the IC50 in series [1] (setting [13]) was found to be 1500 nM. For the same compound, the IC50 in series [2] (read-out: JNK3 inhibitory activity IC50) came out at 8 nM. In addition, the “CYP-450 % inh. 2C9” value in series [10] was found to be 38%. For the same compound, in [11], the “CYP-450 % inh. 2D6” value is reported as 1%.

On to `CC1(NC(=O)c2cc(-n3cc(NC(=O)Nc4ccccc4Cl)cn3)cs2)COC1` [Compound 18, 4-(4-(3-(2-chlorophenyl)ureido)-1H-pyrazol-1-yl)-N-(3-methyloxetan-3-yl)thiophene-2-carboxamide], for which the IC50 in series [3] was more than 20000 nM; in series [1] (setting [13]) it was 3300 nM; in [2] (setting [12]), 45 nM. Further, in series [1], the “R: ratio … of JNK1 over JNK3” value worked out at 73.

Consider `CN1CCC(CNC(=O)c2cc(-n3cc(NC(=O)Nc4ccccc4Cl)cn3)cs2)CC1` [Compound 19, 4-(4-(3-(2-chlorophenyl)ureido)-1H-pyrazol-1-yl)-N-((1-methylpiperidin-4-yl)methyl)thiophene-2-carboxamide], for which the IC50 is more than 20000 nM in series [3], 5800 nM in series [1] (setting [13]) and 142 nM in series [2] (setting [12]). For the same compound, in series [1], the “R: ratio … of JNK1 over JNK3” value is given as 41.

As for `O=C(Nc1cnn(-c2csc(C(=O)NCC3CCNCC3)c2)c1)Nc1ccccc1Cl` [Compound 20, 4-(4-(3-(2-chlorophenyl)ureido)-1H-pyrazol-1-yl)-N-(piperidin-4-ylmethyl)thiophene-2-carboxamide], the IC50 in series [3] is more than 20000 nM; in [1] (setting [13]), 6600 nM.

Regarding `CN1CC[C@H](CNC(=O)c2cc(-n3cc(NC(=O)Nc4ccccc4Cl)cn3)cs2)C1` [Compound 21, (R)-4-(4-(3-(2-chlorophenyl)ureido)-1H-pyrazol-1-yl)-N-((1-methylpyrrolidin-3-yl)methyl)thiophene-2-carboxamide], the “R: ratio … of JNK1 over JNK3” value in series [1] is given as 46. Further, the figures for the IC50 in series [1] (setting [13]) and in series [2] (setting [12]) were 10300 nM and 222 nM, respectively.

In the case of `O=C(Nc1cnn(-c2csc(C(=O)NC[C@H]3CCOC3)c2)c1)Nc1ccccc1Cl` [Compound 22, (R)-4-(4-(3-(2-chlorophenyl)ureido)-1H-pyrazol-1-yl)-N-((tetrahydrofuran-3-yl)methyl)thiophene-2-carboxamide], the “R: ratio … of JNK1 over JNK3” value in series [1] is recorded as 31. In addition, the values for the IC50 in series [1] (setting [13]) and in [2] (setting [12]) were 2200 nM and 71 nM, respectively.

For `CN1CCC[C@H]1CNC(=O)c1cc(-n2cc(NC(=O)Nc3ccccc3Cl)cn2)cs1` [Compound 23, (S)-4-(4-(3-(2-chlorophenyl)ureido)-1H-pyrazol-1-yl)-N-((1-methylpyrrolidin-2-yl)methyl)thiophene-2-carboxamide], the “R: ratio … of JNK1 over JNK3” value in series [1] came to 107. The IC50 was determined as 9100 nM in series [1] (setting [13]) and 85 nM in [2] (setting [12]).

(Values after patent US20240246942A1, “KINASE INHIBITORS FOR THE TREATMENT OF NEURODEGENERATIVE DISEASES” (priority 2020, published 2024).)
